According to patent US12151998B2, “Solid drug form of N-(2,6-bis(1-methylethyl)phenyl)-N′-((1-(4-(dimethylamino)phenyl)cyclopentyl)methyl)urea hydrochloride and compositions, methods and kits related thereto” (The Regents of the University of Michigan, priority 2014, dated 2024):
Counter-ions that a name gives are not always drawn.

Columns and labels:
[1] = Enhanced exposure with stomach acidification: pharmacokinetics of ATR-101 tablets in dogs; type: in vivo; details: male beagle dogs, single 125 mg ATR-101 tablet oral; pretreated with pentagastrin compared to pretreatment with famotidine
Method: To examine pharmacokinetics and exposures of ATR-101 tablets prepared according to Example 6, an in vivo study was carried out in dogs following pretreatment with pentagastrin to decrease stomach pH, or famotidine to increase the stomach pH.
The same cohort of dogs was used in both treatments and included a 5-day wash-out between the treatment arms. Male beagle dogs (approximately 6.5-12.5 kg, n=6) were fasted overnight prior to dosing and through the first 4 hours of blood sample collection. For the pentagastrin arm, the animals were pretreated with a single intramuscular injection of pentagastrin (0.06 mg/mL at a dose level of […] and a dose volume of 0.01 mL/kg) 16 to 22 minutes prior to test article administration. For the famotidine arm, animals were pretreated with a single oral tablet dose of 20 mg famotidine at 59 to 60 minutes prior to tablet administration.
Following tablet administration, each animal received 30 mL of tap water via oral gavage. Animals were treated with a single 125 mg ATR-101 tablet by oral administration. The tablet was made as described in Example 6 above, and contained the ingredients listed in Table 6, but with the amount of ATR-101 at 125 mg (as free base) rather than 500 mg and the remaining ingredients reduced by the same weight percentage. […] ATR-101 concentrations were determined by LC/MSMS.

ACC = details: cited from earlier work

Row | increase in systemic exposure [1] | SMILES | delay of disease progression (average) (ACC; ACC patients that derive a therapeutic benefit) | patients with increased progression-free survival (ACC; ACC patients, fraction of patients)
1 | 57% | CC(C)c1cccc(C(C)C)c1NC(=O)NCC1(c2ccc(N(C)C)cc2)CCCC1 [ATR-101, N-(2,6-bis(1-methylethyl)phenyl)-N′-((1-(4-(dimethylamino)phenyl)cyclopentyl)methyl)urea hydrochloride] | – | –
2 | – | Clc1ccc(C(c2ccccc2Cl)C(Cl)Cl)cc1 (stereo not drawn) [mitotane] | five | one-quarter to one-third
